Data as given in US20220332700A1, “NOVEL APOPTOSIS SIGNAL-REGULATING KINASE 1 INHIBITORS” (MANKIND PHARMA LTD, priority 2019, published 2022).

Tests used:
[1] = biological target: T1, recombinant ASK1 (Homo sapiens, UniProt Q99683); assay: ASK1 Biochemical Assay (HTRF KinEASE-STK S3); settings: ATP 100 μM; read-out: Biochemical Assay IC50
T1 construct: purchased Carna Biosciences
Protocol: ASK1 biochemical assay was standardized using recombinant ASK1 (Carna Biosciences), substrate and detection reagents from Cisbio HRTF KinEASE-STK S3 kit. Enzyme concentration, ATP, biotinylated STK substrate and STK antibodies were titrated for enzyme assay. Assay was carried out in ASK1 kinase buffer, 10 mM MOPS pH-7, 10 mM Mg-acetate, 1 mM DTT, 0.025% NP40, 1.5% glycerol and 0.05% BSA. DMSO was used as vehicle control with a final concentration of 1%. A 5 ng of ASK1 enzyme was incubated with compound for 1 hour at 23° C. on a shaker at 100rpm. ATP and biotin substrate was added at a final concentration of 100 μM and 1 μM and incubated for 3 hours at 23° C. on a shaker at 100rpm. […] Delta F ratios were calculated from data obtained at excitation (337 nm) and emission wavelengths (665 nm and 620-10 nm). Substrate blank values was considered as negative control. Values from negative control was substrated from vehicle control and compound treated wells. Enzyme inhibition by compounds were calculated from vehicle controls, which represent uninterrupted enzyme's activity.

[2] = biological target: T2, Human ASK1 (Homo sapiens, UniProt Q99683); assay: ASK1 Cell Based Assay (phospho p38 read out in hASK1 transfected HEK293T-AP1 cells); settings: HEK293T-AP1 cells, 1 mM hydrogen peroxide, phospho p38; read-out: Cell Based Assay IC50
T2 construct: expressed in transfected cells; host or cells: HEK293T-AP1
T2 sequence (Q99683 1-1374): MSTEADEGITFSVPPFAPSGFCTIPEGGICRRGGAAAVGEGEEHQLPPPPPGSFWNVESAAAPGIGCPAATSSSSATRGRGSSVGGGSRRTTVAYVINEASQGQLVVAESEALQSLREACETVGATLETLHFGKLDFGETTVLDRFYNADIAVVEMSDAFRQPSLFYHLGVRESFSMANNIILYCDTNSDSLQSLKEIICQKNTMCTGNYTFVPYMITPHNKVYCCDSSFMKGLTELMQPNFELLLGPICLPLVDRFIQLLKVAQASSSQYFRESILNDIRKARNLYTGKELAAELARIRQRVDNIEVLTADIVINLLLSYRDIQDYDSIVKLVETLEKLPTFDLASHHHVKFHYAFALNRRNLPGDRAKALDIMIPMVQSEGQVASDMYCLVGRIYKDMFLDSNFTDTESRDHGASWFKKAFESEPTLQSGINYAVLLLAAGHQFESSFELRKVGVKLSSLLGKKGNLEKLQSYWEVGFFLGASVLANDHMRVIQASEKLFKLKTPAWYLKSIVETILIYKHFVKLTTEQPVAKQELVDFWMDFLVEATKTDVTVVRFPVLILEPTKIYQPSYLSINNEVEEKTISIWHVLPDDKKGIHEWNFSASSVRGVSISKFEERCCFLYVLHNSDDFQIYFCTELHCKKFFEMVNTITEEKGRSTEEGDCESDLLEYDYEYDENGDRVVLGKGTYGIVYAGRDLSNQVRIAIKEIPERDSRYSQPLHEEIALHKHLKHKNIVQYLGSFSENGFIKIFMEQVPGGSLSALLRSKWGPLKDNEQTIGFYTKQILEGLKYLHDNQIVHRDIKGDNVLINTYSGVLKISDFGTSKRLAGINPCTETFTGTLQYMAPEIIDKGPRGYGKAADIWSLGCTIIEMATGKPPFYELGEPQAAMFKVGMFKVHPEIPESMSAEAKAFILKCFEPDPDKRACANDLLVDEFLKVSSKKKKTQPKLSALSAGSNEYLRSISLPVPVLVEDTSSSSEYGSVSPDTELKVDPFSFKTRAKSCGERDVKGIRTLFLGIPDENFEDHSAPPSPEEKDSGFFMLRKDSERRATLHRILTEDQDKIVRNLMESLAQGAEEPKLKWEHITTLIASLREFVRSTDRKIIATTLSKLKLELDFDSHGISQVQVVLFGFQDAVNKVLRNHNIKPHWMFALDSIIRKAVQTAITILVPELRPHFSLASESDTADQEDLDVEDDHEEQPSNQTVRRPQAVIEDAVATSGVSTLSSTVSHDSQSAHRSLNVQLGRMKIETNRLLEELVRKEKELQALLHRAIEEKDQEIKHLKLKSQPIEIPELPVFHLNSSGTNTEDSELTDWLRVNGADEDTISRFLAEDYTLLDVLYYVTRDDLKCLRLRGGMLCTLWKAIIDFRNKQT
Protocol: HEK293T-AP1 cells were seeded at a density of 20,000 cells per well in a poly-d-lysine coated 96 well microplate. Next day, cells were transfected with hASK1-pcDNA3.1 vector using lipofectamine 3000. After 24 hours of transfection, cells were treated with compounds for 24 hours in assay medium. DMSO was used as a vehicle control with a final DMSO concentration of 0.2%. On 4th day, medium was discarded and cells were activated with 1 mM hydrogen peroxide for 1 hour in the presence of compounds. Cells were lysed for 1 hour with 1× lysis buffer on a shaker at 100 rpm. Sixteen microliters of lysate was collected into a 384 well small volume plate. Phospho p38 levels in the lysate was detected by using CisbioPhospho-p38 MAPK (Thr180/Tyr182) #64P38PEG.Four microliters of phospho p38 antibodies labelled with europium cryptate and d2 acceptor, were added to the lysate and incubated overnight. TR-FRET was measured at an excitation of 335 nm and emission was measured at 615 nm and 665 nm in BMG FLUOstar multimode reader.
Compounds were assessed for ASK1 inhibition based on phospho p38 read out. […] Background control values were susbtracted from vehicle control as well as from compound treated wells.

Cc1cc(N2CCN(c3cccc(-c4nncn4C(C)C)n3)C2=O)ccc1S(C)(=O)=O [Example 1029, 1-(6-(4-isopropyl-4H-1,2,4-triazol-3-yl)pyridin-2-yl)-3-(3-methyl-4-(methylsulfonyl)phenyl)imidazolidin-2-one]
IC50 [1]: < 100 nM
IC50 [2]: > 1000 nM

CC(C)n1cnnc1-c1cccc(N2CCN(c3ccc(S(C)(=O)=O)cc3F)C2=O)n1 [Example 1032, 1-(2-fluoro-4-(methylsulfonyl)phenyl)-3-(6-(4-isopropyl-4H-1,2,4-triazol-3-yl)pyridin-2-yl)imidazolidin-2-one]
IC50 [1]: < 100 nM
IC50 [2]: > 1000 nM

CC(C)n1cnnc1-c1cccc(N2CCN(c3ccncc3)C2=O)n1 [Example 1034, 1-(6-(4-isopropyl-4H-1,2,4-triazol-3-yl)pyridin-2-yl)-3-(pyridin-4-yl)imidazolidin-2-one]
IC50 [1]: < 100 nM
IC50 [2]: > 1000 nM

CC(C)n1cnnc1-c1cccc(N2CCN(c3ccc(C#N)cc3)C2=O)n1 [Example 1035, 4-(3-(6-(4-isopropyl-4H-1,2,4-triazol-3-yl)pyridin-2-yl)-2-oxoimidazolidin-1-yl)benzonitrile]
IC50 [1]: < 100 nM
IC50 [2]: > 10000 nM

CC(C)n1cnnc1-c1cccc(N2CCN(c3ccc(-n4ccnc4)cc3)C2=O)n1 [Example 1036, 1-(4-(1H-imidazol-1-yl)phenyl)-3-(6-(4-isopropyl-4H-1,2,4-triazol-3-yl)pyridin-2-yl)imidazolidin-2-one]
IC50 [1]: < 100 nM
IC50 [2]: < 1000 nM

CC(C)n1cnnc1-c1cccc(N2CCN(c3ccc(C(=O)C4CC4)cc3)C2=O)n1 [Example 1037, 1-(4-(cyclopropanecarbonyl)phenyl)-3-(6-(4-isopropyl-4H-1,2,4-triazol-3-yl)pyridin-2-yl)imidazolidin-2-one]
IC50 [1]: < 100 nM
IC50 [2]: < 1000 nM

CC(C)n1cnnc1-c1cccc(N2CCN(c3ccc(S(C)(=O)=O)c(F)c3)C2=O)n1 [Example 1038, 1-(3-fluoro-4-(methylsulfonyl)phenyl)-3-(6-(4-isopropyl-4H-1,2,4-triazol-3-yl)pyridin-2-yl)imidazolidin-2-one]
IC50 [1]: < 100 nM
IC50 [2]: < 1000 nM

COc1ccc(N2CCN(c3cccc(-c4nncn4C(C)C)n3)C2=O)cc1 [Example 1039, 1-(6-(4-isopropyl-4H-1,2,4-triazol-3-yl)pyridin-2-yl)-3-(4-methoxyphenyl)imidazolidin-2-one]
IC50 [1]: < 100 nM
IC50 [2]: > 1000 nM

CC(C)n1cnnc1-c1cccc(N2CCN(c3ccc(-n4cnc(C5CC5)c4)cc3)C2=O)n1 [Example 1040, 1-(4-(4-cyclopropyl-1H-imidazol-1-yl)phenyl)-3-(6-(4-isopropyl-4H-1,2,4-triazol-3-yl)pyridin-2-yl)imidazolidin-2-one]
IC50 [1]: < 100 nM
IC50 [2]: > 10000 nM

CC(C)n1cnnc1-c1cccc(N2CCN(c3ccc(N(C)C)cc3)C2=O)n1 [Example 1041, 1-(4-(dimethylamino)phenyl)-3-(6-(4-isopropyl-4H-1,2,4-triazol-3-yl)pyridin-2-yl)imidazolidin-2-one]
IC50 [1]: < 100 nM
IC50 [2]: > 1000 nM

CC(C)n1cnnc1-c1cccc(N2CCN(c3ccc(NS(C)(=O)=O)cc3)C2=O)n1 [Example 1044, N-(4-(3-(6-(4-isopropyl-4H-1,2,4-triazol-3-yl)pyridin-2-yl)-2-oxoimidazolidin-1-yl)phenyl)methanesulfonamide]
IC50 [1]: < 100 nM
IC50 [2]: > 1000 nM

CNS(=O)(=O)c1ccc(N2CCN(c3cccc(-c4nncn4C(C)C)n3)C2=O)cc1 [Example 1045, 4-(3-(6-(4-isopropyl-4H-1,2,4-triazol-3-yl)pyridin-2-yl)-2-oxoimidazolidin-1-yl)-N-methylbenzenesulfonamide]
IC50 [1]: < 100 nM
IC50 [2]: < 1000 nM

CC(C)n1cnnc1-c1cccc(N2CCN(c3ccc(CS(C)(=O)=O)cc3)C2=O)n1 [Example 1047, 1-(6-(4-isopropyl-4H-1,2,4-triazol-3-yl)pyridin-2-yl)-3-(4-((methylsulfonyl)methyl)phenyl)imidazolidin-2-one]
IC50 [1]: < 100 nM
IC50 [2]: > 1000 nM

CC(C)n1cnnc1-c1cccc(N2CCN(c3ccc(C(=O)NC4CC4)cc3)C2=O)n1 [Example 1048, N-cyclopropyl-4-(3-(6-(4-isopropyl-4H-1,2,4-triazol-3-yl)pyridin-2-yl)-2-oxoimidazolidin-1-yl)benzamide]
IC50 [1]: < 100 nM
IC50 [2]: > 1000 nM

COCCS(=O)(=O)c1ccc(N2CCN(c3cccc(-c4nncn4C(C)C)n3)C2=O)cc1 [Example 1050, 1-(4-(2-methoxyethylsulfonyl)phenyl)-3-(6-(4-isopropyl-4H-1,2,4-triazol-3-yl)pyridin-2-yl)imidazolidin-2-one]
IC50 [1]: < 100 nM
IC50 [2]: > 1000 nM

CC(C)n1cnnc1-c1cccc(N2CCN(c3ccc(C(O)C4CC4)cc3)C2=O)n1 (stereo not shown) [Example 1051, 1-(4-(cyclopropyl(hydroxy)methyl)phenyl)-3-(6-(4-isopropyl-4H-1,2,4-triazol-3-yl)pyridin-2-yl)imidazolidin-2-one]
IC50 [1]: < 100 nM
IC50 [2]: < 1000 nM

CC(C)n1cnnc1-c1cccc(N2CCN(c3ccc(NC(C(N)=O)C4CC4)cc3)C2=O)n1 (stereo not shown) [Example 1052, 2-(4-(3-(6-(4-isopropyl-4H-1,2,4-triazol-3-yl)pyridin-2-yl)-2-oxoimidazolidin-1-yl)phenylamino)-2-cyclopropylacetamide]
IC50 [1]: < 100 nM
IC50 [2]: > 1000 nM

CC(CC#N)n1cnnc1-c1cccc(N2CCN(c3ccc(S(C)(=O)=O)cc3)C2=O)n1 (stereo not shown) [Example 1053, 3-(3-(6-(3-(4-(methylsulfonyl)phenyl)-2-oxoimidazolidin-1-yl)pyridin-2-yl)-4H-1,2,4-triazol-4-yl)butanenitrile]
IC50 [1]: < 100 nM
IC50 [2]: > 1000 nM

COc1cc(S(C)(=O)=O)c(C)cc1N1CCN(c2cccc(-c3nncn3C(C)C)n2)C1=O [Example 1055, 1-(6-(4-isopropyl-4H-1,2,4-triazol-3-yl)pyridin-2-yl)-3-(2-methoxy-5-methyl-4-(methylsulfonyl)phenyl)imidazolidin-2-one]
IC50 [1]: < 100 nM
IC50 [2]: > 1000 nM

CC(C)n1cnnc1-c1cccc(N2CCN(c3ccc(NC(C#N)C4CC4)cc3)C2=O)n1 (stereo not shown) [Example 1056, 2-(4-(3-(6-(4-isopropyl-4H-1,2,4-triazol-3-yl)pyridin-2-yl)-2-oxoimidazolidin-1-yl)phenylamino)-2-cyclopropylacetonitrile]
IC50 [1]: > 100 nM
IC50 [2]: > 1000 nM
